In the supplement of paper PMC10307832:

Assays:
Assay in all cases: relative viability (nuclei count vs DMSO), 5 days (fraction); higher = more cells survive
Selisistat + Trametinib = compound: C1CC(C2=C(C1)C3=C(N2)C=CC(=C3)Cl)C(=O)N [Selisistat] + CC(=O)Nc1cccc(-n2c(=O)n(C3CC3)c(=O)c3c(Nc4ccc(I)cc4F)n(C)c(=O)c(C)c32)c1 [Trametinib] (partner 0.02 µM)
How it was run: (§1)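 Cells from lung cancer lines were seeded into 1536-well plates and, one day later, dosed by pin tool. Treatments were either a single drug or a fixed dose of an anchor drug with five library-drug doses (not always all listed) in √10 steps. After 5 days, nuclei were stained in a one-step fixation (final 0.05% Triton X-100, 1% formaldehyde, 1 ug/ml Hoechst) and counted on 4× images, and relative viability is the treated-to-vehicle nuclei ratio, as the median of duplicate plates.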

Serdemetan + Bortezomib = compound: c1ccc2c(CCNc3ccc(Nc4ccncc4)cc3)c[nH]c2c1 [Serdemetan] + CC(C)C[C@H](NC(=O)[C@H](Cc1ccccc1)NC(=O)c1cnccn1)B(O)O [Bortezomib] (partner 0.002 µM)
How it was run: as §1

Selisistat + Crizotinib = compound: C1CC(C2=C(C1)C3=C(N2)C=CC(=C3)Cl)C(=O)N [Selisistat] + C[C@@H](Oc1cc(-c2cnn(C3CCNCC3)c2)cnc1N)c1c(Cl)ccc(F)c1Cl [Crizotinib] (partner 1 µM)
How it was run: as §1

Serdemetan + Pemetrexed = compound: c1ccc2c(CCNc3ccc(Nc4ccncc4)cc3)c[nH]c2c1 [Serdemetan] + Nc1nc2[nH]cc(CCc3ccc(C(=O)N[C@@H](CCC(=O)O)C(=O)O)cc3)c2c(=O)[nH]1 [Pemetrexed] (partner 0.2 µM)
How it was run: as §1

Cell Line: UMC-11
- relative viability (Selisistat + Trametinib; first compound 0.4 µM): 0.575
- relative viability (Selisistat + Trametinib; first compound 1.265 µM): 0.653
- relative viability (Selisistat + Trametinib; first compound 4 µM): 0.596
- relative viability (Selisistat + Trametinib; first compound 12.65 µM): 0.742
- relative viability (Selisistat + Trametinib; first compound 40 µM): 0.717
- relative viability (Serdemetan + Bortezomib; first compound 0.04 µM): 0.614
- relative viability (Serdemetan + Bortezomib; first compound 0.1265 µM): 0.666
- relative viability (Serdemetan + Bortezomib; first compound 0.4 µM): 0.668
- relative viability (Serdemetan + Bortezomib; first compound 1.265 µM): 0.53
- relative viability (Serdemetan + Bortezomib; first compound 4 µM): 0.839
- relative viability (Selisistat + Crizotinib; first compound 0.4 µM): 0.812
- relative viability (Selisistat + Crizotinib; first compound 1.265 µM): 0.653
- relative viability (Selisistat + Crizotinib; first compound 4 µM): 0.683
- relative viability (Selisistat + Crizotinib; first compound 12.65 µM): 0.69
- relative viability (Selisistat + Crizotinib; first compound 40 µM): 0.577
- relative viability (Serdemetan + Pemetrexed; first compound 0.04 µM): 0.776
- relative viability (Serdemetan + Pemetrexed; first compound 0.1265 µM): 0.718
- relative viability (Serdemetan + Pemetrexed; first compound 0.4 µM): 0.689
- relative viability (Serdemetan + Pemetrexed; first compound 1.265 µM): 0.666
- relative viability (Serdemetan + Pemetrexed; first compound 4 µM): 0.586
